Laboratory results published in patent US12324809B2, “Fluoro beta-carboline compounds” (OSSIFI THERAPEUTICS LLC, priority 2018, dated 2025).

What was measured:
[1] = biological target: T1, sclerostin (Homo sapiens, UniProt Q9BQB4); assay: Modulation of sclerostin/Wnt activity: restoring Wnt3a signaling in the presence of sclerostin; format: cell-based; parameters: key to Sclerostin Inhibition Assay; improvement over sclerostin alone: − indicates no improvement over sclerostin protein alone; + indicates an IC100 >10 μM; ++ indicates an IC100 <10 μM; conditions: for Sclerostin Inhibition Assay; improvement over sclerostin alone: IC100 class, Wnt3a signaling in human embryonic cells in presence of sclerostin
T1 construct: host or cells: human embryonic cells (the assay cells)
T1 sequence (Q9BQB4 24-213): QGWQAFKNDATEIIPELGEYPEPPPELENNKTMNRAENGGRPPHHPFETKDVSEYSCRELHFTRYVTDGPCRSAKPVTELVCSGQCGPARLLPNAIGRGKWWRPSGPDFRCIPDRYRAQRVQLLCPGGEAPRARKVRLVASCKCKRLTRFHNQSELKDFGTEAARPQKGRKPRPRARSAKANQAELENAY
Procedure: Compounds synthesized in accordance with the methods of Examples 1-14 were assayed for their ability to restore Wnt signaling in the presence of sclerostin consistent with a known sclerostin antagonist, sclerostin Mab. See, Ellies et al., J Bone Miner Res 21:1738-1749 (2006). […] The addition of a known sclerostin antagonist inhibited sclerostin inhibition of Wnt3a signaling, thus restoring Wnt3a signaling in the cell (IC100 at 10 μM) (data not shown).

[2] = Metabolic stability in pooled human liver microsomes; format: in vitro ADME; conditions: 0.1 μM compound, human liver microsomes 0.1 mg/mL, NADPH, 37 °C, 60 minutes
Procedure: Compounds of the present invention (0.1 μM) were incubated with microsomes at 37 °C for a total of 60 minutes. The reaction contained pooled human liver microsomal protein (0.1 mg/mL) in potassium phosphate buffer with NADPH. At the indicated time points (0, 5, 15, 30 and 60 minutes). Samples were analyzed by LC/MS/MS and remaining parent drug was calculated using Microsoft Excel (2007). Obach R S, Drug Metab Dispos. 27(11):1350-1359 (1999).

[3] = tested on: MC3T3-E1 (mouse calvarial) osteoblast cells; assay: Bone formation assay: rescue of sclerostin inhibition of mineralization (calcium concentration); format: cell-based; parameters: key to Sclerostin Inhibition of Mineralization; improvement over sclerostin alone: − indicates no improvement over sclerostin protein alone; + indicates an IC100 >10 μM; ++ indicates an IC100 <10 μM; conditions: for IC100: Mus musculus, MC3T3-E1, IC100 class, read-out: Sclerostin Inhibition of Mineralization, improvement over sclerostin alone; for Sclerostin Inhibition of Mineralization; improvement over sclerostin alone: IC100 class
Procedure: Mineralization (crystalline calcium phosphate formation) represents an in vitro model of bone formation. Using an assay in which the amount of mineralization is quantified by measuring total calcium after solubilization of deposited crystalline calcium phosphate, sclerostin was previously shown to inhibit mineralization in MC3T3-E1 (mouse calvarial) osteoblast cells. Li et al., J Bone Miner Res 24:578-588 (2008). Following the protocol described in Li et al., Compounds were assayed for their ability to rescue the inhibition of mineralization by sclerostin in MC3T3 osteoblast cells. […] Addition of a compound of Examples 1-14 neutralized sclerostin-mediated inhibition of mineralization, as reflected by the increase in calcium concentration.

Molecule	Sclerostin Inhibition Assay; improvement over sclerostin alone [1]	Metabolic Stability [2]	IC100 [3]	Sclerostin Inhibition of Mineralization; improvement over sclerostin alone [3]	Effect of sclerostin on Wnt3a signaling (in words) ([1]; human embryonic cells)	Effect of sclerostin treatment alone on mineralization (in words) [3]
COc1ccc2c3ccnc(C(F)(F)F)c3n(CCN3CCOCC3)c2c1F.Cl [Example 1, 4-(2-(8-Fluoro-7-methoxy-1-(trifluoromethyl)-9H-pyrido[3,4-b]indol-9-yl)ethyl)morpholine Hydrochloride Salt]	+ (+ indicates an IC100 >10 μM)	++ (++ indicates a stability >1x)	> 10 µM			
COc1cc2c(cc1F)c1ccnc(C(F)(F)F)c1n2CCN1CCOCC1.Cl [Example 2, 4-(2-(6-fluoro-7-methoxy-1-(trifluoromethyl)-9H-pyrido[3,4-b]indol-9-yl)ethyl)morpholine Hydrochloride Salt]	++ (++ indicates an IC100 <10 μM)	++ (++ indicates a stability >1x)	< 10 µM			
COc1cc2c(cc1F)c1ccnc(C(F)(F)F)c1n2CCN1CCC(OC)CC1.Cl [Example 3, 6-Fluoro-7-methoxy-9-(2-(4-methoxypiperidin-1-yl)ethyl)-1-(trifluoromethyl)-9H-pyrido[3,4-b]indole Hydrochloride Salt]	++ (++ indicates an IC100 <10 μM)	++ (++ indicates a stability >1x)	< 10 µM			
COc1cc2c(cc1F)c1ccnc(C(F)(F)F)c1n2CCN1CCN(C)C(=O)C1.Cl [Example 4, 4-(2-(6-Fluoro-7-methoxy-1-(trifluoromethyl)-9H-pyrido[3,4-b]indol-9-yl)ethyl)-1-methylpiperazin-2-one Hydrochloride Salt]	+ (+ indicates an IC100 >10 μM)	++ (++ indicates a stability >1x)	> 10 µM			
COc1cc2c(cc1F)c1ccnc(C(F)(F)F)c1n2CCN1CC(OC(F)F)C1.Cl [Example 5, 9-(2-(3-(Difluoromethoxy)azetidin-1-yl)ethyl)-6-fluoro-7-methoxy-1-(trifluoromethyl)-9H-pyrido[3,4-b]indole Hydrochloride Salt]	++ (++ indicates an IC100 <10 μM)	++ (++ indicates a stability >1x)	< 10 µM			
COc1cc2c(cc1F)c1ccnc(C(F)(F)F)c1n2CCN1CC2CCC(C1)O2.Cl [Example 6, 3-(2-(6-Fluoro-7-methoxy-1-(trifluoromethyl)-9H-pyrido[3,4-b]indol-9-yl)ethyl)-8-oxa-3-azabicyclo[3.2.1]octane Hydrochloride Salt]	++ (++ indicates an IC100 <10 μM)	++ (++ indicates a stability >1x)	< 10 µM			
COc1cc2c(cc1F)c1ccnc(C(F)(F)F)c1n2CCN1C2CCC1COC2.Cl [Example 7, 8-(2-(6-Fluoro-7-methoxy-1-(trifluoromethyl)-9H-pyrido[3,4-b]indol-9-yl)ethyl)-3-oxa-8-azabicyclo[3.2.1]octane Hydrochloride Salt]	++ (++ indicates an IC100 <10 μM)	+ (+ indicates a stability of <1x)	< 10 µM			
COc1cc2c(cc1F)c1ccnc(C(F)(F)F)c1n2CCN1CC2CC1CO2.Cl (stereo not shown) [Example 8, 5-(2-(6-Fluoro-7-methoxy-1-(trifluoromethyl)-9H-pyrido[3,4-b]indol-9-yl)ethyl)-2-oxa-5-azabicyclo[2.2.1]heptane Hydrochloride Salt]	++ (++ indicates an IC100 <10 μM)	+ (+ indicates a stability of <1x)	< 10 µM			
COc1cc2c(cc1F)c1ccnc(C(F)(F)F)c1n2CCN1CC(OC)C(OC)C1.Cl (stereo not shown) [Example 9, 9-(2-(3,4-Dimethoxypyrrolidin-1-yl)ethyl)-6-fluoro-7-methoxy-1-(trifluoromethyl)-9H-pyrido[3,4-b]indole Hydrochloride Salt]	++ (++ indicates an IC100 <10 μM)	+ (+ indicates a stability of <1x)	< 10 µM			
COc1cc2c(cc1F)c1ccnc(C(F)(F)F)c1n2CCN1CCC(OC)C1.Cl (stereo not shown) [Example 10, 6-Fluoro-7-methoxy-9-(2-(3-methoxypyrrolidin-1-yl)ethyl)-1-(trifluoromethyl)-9H-pyrido[3,4-b]indole Hydrochloride Salt]	++ (++ indicates an IC100 <10 μM)	++ (++ indicates a stability >1x)	< 10 µM			
COc1cc2c(cc1F)c1ccnc(C(F)(F)F)c1n2CCN1CC2COCC2C1.Cl (stereo not shown) [Example 11, 5-(2-(6-Fluoro-7-methoxy-1-(trifluoromethyl)-9H-pyrido[3,4-b]indol-9-yl)ethyl)hexahydro-1H-furo[3,4-c]pyrrole Hydrochloride Salt]	++ (++ indicates an IC100 <10 μM)	++ (++ indicates a stability >1x)	< 10 µM			
COc1cc2c(cc1F)c1ccnc(C(F)(F)F)c1n2CCN1CCC(F)(F)CC1.Cl [Example 12, 9-(2-(4,4-Difluoropiperidin-1-yl)ethyl)-6-fluoro-7-methoxy-1-(trifluoromethyl)-9H-pyrido[3,4-b]indole Hydrochloride Salt]	−	++ (++ indicates a stability >1x)		−		
COc1cc2c(cc1F)c1ccnc(C(F)(F)F)c1n2CCn1cncn1.Cl [Example 13, 9-(2-(1H-1,2,4-Triazol-1-yl)ethyl)-6-fluoro-7-methoxy-1-(trifluoromethyl)-9H-pyrido[3,4-b]indole Hydrochloride Salt]	−	++ (++ indicates a stability >1x)		−		
COc1c(F)cc2c3ccnc(C(F)(F)F)c3n(CCN3CCOCC3)c2c1F.Cl [Example 14, 4-(2-(6,8-Difluoro-7-methoxy-1-(trifluoromethyl)-9H-pyrido[3,4-b]indol-9-yl)ethyl)morpholine Hydrochloride Salt]	++ (++ indicates an IC100 <10 μM)	+ (+ indicates a stability of <1x)	< 10 µM			
Sclerostin protein: protein that antagonizes Wnt3a signaling and inhibits mineralization; the assay's inhibitor and baseline	−			−	antagonized Wnt3a signaling	significant decrease in mineralization
